From patent publication US20180078615A1, “USE OF CCL2 TO INHIBIT ABNORMAL UTERINE BLEEDING” (UNIVERSITY OF SOUTH FLORIDA, priority 2015, published 2018)

Key:
VSMCs [1] = experiment: VSMC proliferation assay by BrdU incorporation; assay type: cell-based, human; conditions: for BrdU incorporation: control 0.86±0.03
Procedure: VSMCs were grown in 96-well plates or 8-well chamber slides and incubated with 10^−7 M of MPA (Sigma-Aldrich) or ETO (Organon) or P4 (Sigma-Aldrich) or vehicle±rCCL2 (R&D Systems)±STAT1 inhibitor, 5′-methyl-thioadenosine (MTA; EMD Millipore) (19) for 48 or 72 h. VSMCs were then analyzed for apoptosis by an ELISA based apoptosis kit (Roche) or cleaved-caspase 3 immunostaining. VSMC proliferation was measured by BrdU incorporation Kit (Cell Signaling). (See further details in SI Materials and Methods).
VSMCs were thawed and cultured in T-75 cell culture flasks in medium 231 (M231; Life Technologies) with smooth muscle growth supplement (5% FBS; 2 ng/mL human basic fibroblast growth factor, 0.5 ng/mL human epidermal growth factor, 5 ng/mL heparin, 0.2 μg/mL insulin and 5 μg/mL BSA; Life Technologies) with 100 U/mL penicillin, 100 μg/mL streptomycin, and 0.25 μg/mL fungizone. Confluent VSMCs were washed twice with 1×PBS to remove residual serum, and then passaged (5,000 cells per well) in 96-well plates and incubated in parallel in M231 with 1% charcoal striped FBS with 0.1% ethanol (vehicle, control), 10^−7 M MPA (Sigma-Aldrich), 10^−7 M ETO (Organon), or 10^−7 M P4 (Sigma-Aldrich)±rCCL2 (monocyte chemotactic protein-1; R&D Systems)±STAT1 inhibitor, 5′-methyl-thioadenosine (MTA; EMD Millipore) for 48 or 72 h.
BrdU (Cell Signaling) 1× in 100-μL M231 was added to each well during the final 24 h of incubation. At the end of 48- or 72-h incubation period, medium was removed and the wells washed twice with ice-cold PBS. VSMC proliferation was measured using BrdU cell proliferation Kit (Cell Signaling) at room temperature. Cells was incubated in 100 μL per well of the fixing/denaturing solution for 30 min, and then replaced by 100 μL per well BrdU detection antibody solution for 1 h. Following three rinses with wash buffer, plates were incubated in HRP-conjugated secondary antibody (100 μL per well) for 30 min. After three additional rinses with wash buffer, tetramethylbenzidine substrate solution (100 μL per well) was added for 20 min and the reaction stopped by adding 100 μL per well STOP solution. Absorbance was measured at 450 nm using Spectra Max190 microplate reader (Molecular Devices) to detect BrdU incorporation in each well.

endometrial VSMCs = experiment: αSMA and PCNA double-immunostaining of endometrium of oophorectomized guinea pigs (OVX-GPs); assay type: in vivo, guinea pig; conditions: 21-d time-release pellets, mean±SEM
Excerpt: After receiving written informed consent at New York University under Institutional Review Board approval, paraffin sections were derived from banked paired endometrial tissues obtained before and after Depo therapy by […] biopsy from each reproductive age woman with regular menstrual cycles during the secretory phase (n=6). Based on an established animal model for LAPC-induced AUB in humans (9), nulliparous adult female pigmented GPs (weighing 525-775 g) were used in experimental procedures conforming to National Health and Medical Research Council Guidelines of Australia and approved by the Animal Ethics Committee of The University of Western Australia. GPs (n=24) were subjected to bilateral OVX and given subcutaneous 21-d time-release pellets (Innovative Research of America) containing MPA (50 mg/d; n=6) or 17β-Estradiol (E2) (0.1 mg/d; n=6), both MPA and E2 (n=6), or no pellets (n=6). On day 20 of exposure to the pellets, GPs were killed with pentobarbital and uterine tissues fixed in 10% formalin and processed for paraffin embedding. In vitro experiments used aortic VSMCs from premenopausal women (n=2) (Life Technologies). Paraffin sections (5 μm) from paired pre- vs. post-Depo treated human or GP endometria were deparaffinized, boiled in citrate buffer (pH: 6.0) and then incubated in methanol containing 3% H2O2. Following 10% normal horse serum blocking (Vector Labs), slides were incubated overnight at 4° C. with mouse anti-PCNA monoclonal antibody (EMD Millipore). After several rinses in Tris-buffered saline containing 0.1% tween-20 (TBS-T; pH 7.6) slides were then incubated with biotinylated anti-mouse IgG (Vector Labs) for 30 min, then with a streptavidin-peroxidase complex (Elite ABC kit; Vector Labs) for 30 min and with diaminobenzidine (DAB; Vector Labs) for 3 min. […] Slides were counterstained by Hematoxylin and evaluated by histological scoring (HSCORE), as described previously (34). (See details for HSCORE evaluation for αSMA immunoreactivity and PCNA quantitation in SI Materials and Methods). Staining intensity for α-SMA was semiquantitatively evaluated by Q:1 HSCORE (1). […] An HSCORE value was determined for each specimen by using the formula HSCORE=ΣPi (i+1), where Pi is the percentage of stained cells in each intensity category (i.e., i=1, 2, or 3). Quantitation of PCNA immunostaining was determined by counting the number of PCNA^+ (brown) and PCNA^- cell nuclei (blue) in VSMCs (αSMA immunostained cells) and obtaining the ratio of numbers of PCNA^+ cell nuclei to total αSMA^+ cells. For each slide, three different fields were evaluated microscopically at 200× magnification. Slides were evaluated at different times by two investigators blinded to tissue source, and the average HSCORE or percentage of cells with PCNA^+ nuclei to total αSMA^+ cells used.

VSMCs [2] = experiment: Transwell insert migration assay; assay type: cell-based, human; conditions: coincubation with 10 ng/mL rCCL2, 12 h
Procedure: VSMCs (75,000 cells/200 μL) were suspended in M231 containing 1% charcoal striped FBS and either 0.1% ethanol (vehicle control) or the corresponding steroids and seeded onto insert wells (transwell filter with 12-μm pores; EMD Millipore). The inserts were then placed in 24-well plates containing 500 μL M231 with 1% charcoal striped FBS. After 12 h, cells remaining on the upper surface of the filter were removed with a cotton swab. Migrated cells were trypsinized, centrifuged, and resuspended in 200 μL of M231 medium. The cell suspensions were mixed with 200 μL 10% ethanol containing 0.4% Trypan blue dye and the live cell number was counted by Countess Automated Cell Counter (Invitrogen). See further details in SI Materials and Methods.
Cultured VSMCs were grown in T-75 cell culture flasks in M231 (Life Technologies) with smooth muscle growth supplement (Life Technologies) with 100 U/mL penicillin, 100 μg/mL streptomycin, 0.25 μg/mL fungizone. Confluent VSMCs were washed twice with 1×PBS to remove residual serum, and then trypsinized, resuspended (75,000 cells per 200 μL per well) in M231 with 1% charcoal striped FBS with 0.1% ethanol (vehicle, control), 10^−7 M MPA (Sigma-Aldrich), 10^−7 M ETO (Organon), or 10^−7 M P4 (Sigma-Aldrich)±rCCL2 (R&D Systems) and seeded on insert wells (transwell filter with 12-μm pores; EMD Millipore), which were then placed in 24-well plates containing 500 μL M231 with 1% charcoal striped FBS. After 12 h, cells remaining on the upper surface of the filter were removed with a cotton swab. Migrated cells attached to the lower surface of each insert or to the surface of lower wells were collected by trypsinization, followed by centrifugation and resuspension in 200 μL of M231 medium. The cell suspensions were mixed with 200 μL 10% ethanol containing 0.4% Trypan blue dye (selectively stains only dead cells blue, whereas live cells with intact cell membranes remain unstained) for 5 min. A mixture of 100 μL M231 and 100 μL 10% ethanol containing 0.4% Trypan blue dye was used as a negative control. To detect live cell numbers, 10 μL of final cell/Trypan blue dye suspension from each treatment condition was pipetted into Countess Cell Counting Chamber Slide and counted by using Countess Automated Cell Counter (Invitrogen). The counting procedure was performed in duplicate.

5′-methyl-thioadenosine [MTA]
effect on rCCL2 reversal of progestin-inhibited BrdU incorporation (VSMCs [1]; 100 μm MTA with 10 ng/mL rCCL2 and MPA or ETO): abolished

C[C@]12CC[C@@H]3c4ccc(O)cc4CC[C@H]3[C@@H]1CC[C@@H]2O [E2, 17β-Estradiol]
PCNA+ endometrial VSMCs (endometrial VSMCs; n=6, control 11.2%±2.3): 36.8%±2.7 | αSMA HSCORE (endometrial VSMCs; n=6, control 135.2±26.0): 212.7±14.6

rCCL2: recombinant chemokine (C-C motif) ligand 2 (monocyte chemotactic protein-1; R&D Systems)
effect on inhibition of BrdU incorporation by ETO (VSMCs [1]; 10 ng/mL rCCL2 added to 10^−7 M ETO): reversed | effect on inhibition of BrdU incorporation by MPA (VSMCs [1]; 10 ng/mL rCCL2 added to 10^−7 M MPA): reversed | BrdU incorporation (VSMCs [1]; rCCL2 1 ng/mL): 1.05±0.05 | BrdU incorporation (VSMCs [1]; rCCL2 10 ng/mL): 1.21±0.05 | effect on inhibition of VSMC migration by ETO (VSMCs [2]): did not reverse | effect on inhibition of VSMC migration by MPA (VSMCs [2]): partially reversed | effect on inhibition of VSMC migration by P4 (VSMCs [2]): did not reverse
